From ChEMBL document CHEMBL1124276, “Evaluation of the importance of hydrophobic interactions in drug binding to dihydrofolate reductase” (J Med Chem, 1988)

What was measured:
Dihydrofolate reductase [1] = molecular target: T1, Dihydrofolate reductase (Escherichia coli, UniProt P0ABQ4); test: Inhibition constant for Phe31-dihydrofolate reductase (DHFR)-NADPH-Compound complex
T1 sequence (P0ABQ4 whole entry): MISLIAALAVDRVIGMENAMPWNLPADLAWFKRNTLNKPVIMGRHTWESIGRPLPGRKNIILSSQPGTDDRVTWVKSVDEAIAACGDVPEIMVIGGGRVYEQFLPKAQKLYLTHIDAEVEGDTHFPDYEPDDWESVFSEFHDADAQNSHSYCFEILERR

Dihydrofolate reductase [2] = molecular target: T2, Dihydrofolate reductase (Escherichia coli, UniProt P0ABQ4); test: Thermodynamic Dissociation Constant for compound-Phe31-dihydrofolate reductase (DHFR) complex at pH 6
Dihydrofolate reductase [3] = molecular target: T2, Dihydrofolate reductase; test: Inhibition constant for Val31-dihydrofolate reductase (DHFR)-NADPH-Compound complex
Dihydrofolate reductase [4] = molecular target: T2, Dihydrofolate reductase; test: Thermodynamic Dissociation Constant for compound-Tyr31-dihydrofolate reductase (DHFR) complex at pH 6
[5] = molecular target: T3, Dihydrofolate reductase (Escherichia coli) (UniProt P0ABQ4)
T3 sequence (whole entry): T1 sequence (P0ABQ4 whole entry)
Description: Constant, Kr at Phe-31 of dihydrofolate reductase (DHFR)

Dihydrofolate reductase [6] = molecular target: T2, Dihydrofolate reductase; test: Inhibition constant for Tyr31-dihydrofolate reductase (DHFR)-NADPH-Compound complex
[7] = molecular target: T3, Dihydrofolate reductase (Escherichia coli); remark: listed apart in the source
Description: Association constant(Kon) at Tyr-31 of dihydrofolate reductase (DHFR)

[8] = molecular target: T3, Dihydrofolate reductase (Escherichia coli); remark: listed apart in the source
Description: Constant at Tyr-31(Kr) of dihydrofolate reductase (DHFR)

[9] = molecular target: T3, Dihydrofolate reductase (Escherichia coli); remark: listed apart in the source
Description: Dissociation constant(Koff) at Phe-31 of dihydrofolate reductase (DHFR)

[10] = molecular target: T3, Dihydrofolate reductase (Escherichia coli); remark: listed apart in the source
Description: Dissociation constant at(Koff) Tyr-31 of dihydrofolate reductase (DHFR)

Dihydrofolate reductase [11] = molecular target: T2, Dihydrofolate reductase; test: Thermodynamic Dissociation Constant for compound-Val31-dihydrofolate reductase (DHFR) complex at pH 7
Dihydrofolate reductase [12] = molecular target: T2, Dihydrofolate reductase; test: Thermodynamic Dissociation Constant for compound-Tyr31-dihydrofolate reductase (DHFR) complex at pH 7
Dihydrofolate reductase [13] = molecular target: T2, Dihydrofolate reductase; test: Thermodynamic Dissociation Constant for compound-Phe31-dihydrofolate reductase (DHFR) complex at pH 7
Dihydrofolate reductase [14] = molecular target: T2, Dihydrofolate reductase; test: Thermodynamic Dissociation Constant for compound-Val31-dihydrofolate reductase (DHFR) complex at pH 8.5
Dihydrofolate reductase [15] = molecular target: T2, Dihydrofolate reductase; test: Thermodynamic Dissociation Constant for compound-Tyr31-dihydrofolate reductase (DHFR) complex at pH 8.5
Dihydrofolate reductase [16] = molecular target: T2, Dihydrofolate reductase; test: Thermodynamic Dissociation Constant for compound-Phe31-dihydrofolate reductase (DHFR) complex at pH 8.5

| Compound | Ki (Dihydrofolate reductase [1]) [nM] | Kd (Dihydrofolate reductase [2]) [nM] | Ki (Dihydrofolate reductase [3]) [nM] | Kd (Dihydrofolate reductase [4]) [nM] | Kr [5] [s⁻¹] | Ki (Dihydrofolate reductase [6]) [nM] | k on [7] [M⁻¹ s⁻¹] | Kr [8] [s⁻¹] | k off [9] [s⁻¹] | k off [10] [s⁻¹] | Kd (Dihydrofolate reductase [11]) [nM] | Kd (Dihydrofolate reductase [12]) [nM] | Kd (Dihydrofolate reductase [13]) [nM] | Kd (Dihydrofolate reductase [14]) [nM] | Kd (Dihydrofolate reductase [15]) [nM] | Kd (Dihydrofolate reductase [16]) [nM] |
| --- | --- | --- | --- | --- | --- | --- | --- | --- | --- | --- | --- | --- | --- | --- | --- | --- |
| Cc1nc2nc(N)nc(N)c2nc1C | 44 | 1600 | 9100 | 3900 | 24 | 57 | 6.8e+06 | 25 | 35 | 25 | – | – | – | – | – | – |
| Nc1nc2ncc(CNc3ccc(C(=O)N[C@@H](CCC(=O)O)C(=O)O)cc3)nc2c(=O)[nH]1 [FOLIC ACID] | – | – | – | – | – | – | – | – | – | – | 4800 | 4400 | 810 | – | – | – |
| NC(=O)c1ccc[n+]([C@H]2O[C@@H](COP(=O)([O-])OP(=O)(O)OC[C@H]3O[C@@H](n4cnc5c(N)ncnc54)[C@H](OP(=O)(O)O)[C@@H]3O)[C@H](O)[C@@H]2O)c1 [NICOTINAMIDE ADENINE DINUCLEOTIDE PHOSPHATE] | – | – | – | – | – | – | – | – | – | – | 220 | 340 | 380 | 300 | 400 | 490 |
